Assay results published in PubChem BioAssay (NCI).
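Protocol summary: plate cells (96-well), add compound at 5 concentrations, incubate 48 h, interpolate endpoints linearly. TGI is the concentration that stops growth completely.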

Assays:
Test in all cases: NCI-60 cell line screen, 48 h
786-0 renal = system: 786-0 renal
HL-60(TB) leukemia = system: HL-60(TB) leukemia
MCF7 breast = system: MCF7 breast
MOLT-4 leukemia = system: MOLT-4 leukemia
NCI-H460 lung = system: NCI-H460 lung
NCI/ADR-RES ovarian = system: NCI/ADR-RES ovarian
SF-295 CNS = system: SF-295 CNS
SN12C renal = system: SN12C renal
SW-620 colon = system: SW-620 colon
BT-549 breast = system: BT-549 breast

Compound | TGI (786-0 renal) [µM] | TGI (HL-60(TB) leukemia) [µM] | TGI (MCF7 breast) [µM] | TGI (MOLT-4 leukemia) [µM] | TGI (NCI-H460 lung) [µM] | TGI (NCI/ADR-RES ovarian) [µM] | TGI (SF-295 CNS) [µM] | TGI (SN12C renal) [µM] | TGI (SW-620 colon) [µM] | TGI (BT-549 breast) [µM]
COC(=O)CC1C2CC3C(C2=O)C13 (stereo not given) | > 100 | > 100 | > 100 | > 100 | > 100 | > 100 | > 100 | > 100 | > 100 | 
CC(=O)C(=C(I)I)c1ccccc1 | 40.3 | 48.2 | 46.8 | 43.2 | > 100 | 49 | 50.1 | 28.4 | 38.7 | 
CN(C)CCCOC(=O)C(O)(Cc1ccccc1)C1CC1 (stereo not given) | > 100 | > 100 | > 100 | > 100 | > 100 | > 100 | > 100 | > 100 | > 100 | 
CCN(CC)C(=O)CCCCCCCCC1CO1 (stereo not given) | > 100 | > 100 | > 100 | > 100 | > 100 | > 100 | > 100 | > 100 | > 100 | 
O=C(CCCC(=O)N1CC(CCl)c2ccc([N+](=O)[O-])cc21)N1CC(CCl)c2ccc([N+](=O)[O-])cc21 (stereo not given) | > 100 | > 100 | > 100 | > 100 | > 100 |  | > 100 | > 100 | > 100 | > 100
O=C1CSC2(CCN(CCCN3c4ccccc4Sc4ccc(Cl)cc43)CC2)N1 | 23.2 |  | 18.5 |  | 15.2 | 20.2 | 22 | 22.7 | 23.6 | 26.1
CC(NC(=O)c1ccc(OP(=O)(OCC2=CC(=O)c3ccccc3C2=O)N(C)CCCCCl)cc1)c1ccc(OCC2CCCCC2)c(C(N)=O)c1 (stereo not given) | 28.6 | 41.1 | 24.9 | 30 | 22.9 | 32.5 | 19.2 | 26.2 | 38.3 | 
CC(Nc1cc(Cl)cc(Cl)c1)c1ccncc1 (stereo not given) | 51.3 |  | 34.3 | 69.1 | 73.3 | 63.7 | 43.4 |  | 70.5 | 52.7
COC1CCC(OC2CC(C3(C)CCC4(CC(O)C(C)C(C(C)/C=C(\C)C(=O)C(C)CC(C)C(=O)O)O4)O3)OC3(OC(C4OC(O)(CO)C(C)CC4C)CC3C)C2C)OC1C (stereo not given) | 1.21 |  | 1.91 | 0.339 | 1.6 | 6.65 | 1.79 | 1.55 | 1.88 | 1.26
N#CC(c1ccccc1)c1cccc2ccccc12 (stereo not given) | > 100 | 57.7 | 92.4 | 57.6 | > 100 | > 100 | > 100 | > 100 | > 100 | 
Clc1ccc(OCc2nnc(CCCCCCCCc3nnc(COc4ccc(Cl)cc4Cl)o3)o2)c(Cl)c1 | > 100 |  | > 100 | > 100 | > 100 | > 100 | > 100 | > 100 | > 100 | > 100
C=C1CCCCCCCCCCC1S(=O)c1ccccc1 (stereo not given) | 38.2 | 39.2 | 65.5 | 78.5 | > 100 | > 100 | > 100 | 55.4 |  | 
